# Legend:
# Experiment in all cases: KINOMEscan competition binding
# Conditions in all cases: compound 10.0 µM
# MATK (human) = MATK (human) (UniProt P42679)
# TNIK (human) = TNIK (human) (UniProt Q9UKE5)
# [1] = tested on: ABL1 (human), P00519 [Q252H]
# MAP4K1 (human) = MAP4K1 (human) (UniProt Q92918)
# RIOK2 (human) = RIOK2 (human) (UniProt Q9BVS4)
# PIM1 (human) = PIM1 (human) (UniProt P11309)
# NEK2 (human) = NEK2 (human) (UniProt P51955)
# SGK110 (human) = SGK110 (human) (UniProt P0C264)
# CLK3 (human) = CLK3 (human) (UniProt P49761)
# RPS6KA4 KD2 (human) = RPS6KA4 KD2 (human) (UniProt O75676)
# NEK5 (human) = NEK5 (human) (UniProt Q6P3R8)
# DDR2 (human) = DDR2 (human) (UniProt Q16832)
# CLK1 (human) = CLK1 (human) (UniProt P49759)
# [2] = tested on: RET (human), P07949 [V804L]
# ALK (human) = ALK (human) (UniProt Q9UM73)
# PAK6 (human) = PAK6 (human) (UniProt Q9NQU5)
# ACVRL1 (human) = ACVRL1 (human) (UniProt P37023)
# MAPK11 (human) = MAPK11 (human) (UniProt Q15759)
# FGFR3 (human) = FGFR3 (human) (UniProt P22607)
# ANKK1 (human) = ANKK1 (human) (UniProt Q8NFD2)
# MAPK15 (human) = MAPK15 (human) (UniProt Q8TD08)
# CDK11B (human) = CDK11B (human) (UniProt P21127)
# DAPK3 (human) = DAPK3 (human) (UniProt O43293)
# EIF2AK2 (human) = EIF2AK2 (human) (UniProt P19525)
# ZAP70 (human) = ZAP70 (human) (UniProt P43403)
# EPHA4 (human) = EPHA4 (human) (UniProt P54764)
# CDC42BPG (human) = CDC42BPG (human) (UniProt Q6DT37)
# MUSK (human) = MUSK (human) (UniProt O15146)
# TGFBR2 (human) = TGFBR2 (human) (UniProt P37173)
# CHEK1 (human) = CHEK1 (human) (UniProt O14757)
# [3] = tested on: ABL1 (human), P00519 [F317L]
# PDPK1 (human) = PDPK1 (human) (UniProt O15530)
# FYN (human) = FYN (human) (UniProt P06241)
# ERBB4 (human) = ERBB4 (human) (UniProt Q15303)
# HIPK1 (human) = HIPK1 (human) (UniProt Q86Z02)
# SIK3 (human) = SIK3 (human) (UniProt Q9Y2K2)
# STK39 (human) = STK39 (human) (UniProt Q9UEW8)
# FGFR2 (human) = FGFR2 (human) (UniProt P21802)
# PKN1 (human) = PKN1 (human) (UniProt Q16512)
# AKT2 (human) = AKT2 (human) (UniProt P31751)
# CAMK4 (human) = CAMK4 (human) (UniProt Q16566)
# RPS6KA4 KD1 (human) = RPS6KA4 KD1 (human) (UniProt O75676)
# DDR2 (human), sequence (Q16832 whole entry, looked up): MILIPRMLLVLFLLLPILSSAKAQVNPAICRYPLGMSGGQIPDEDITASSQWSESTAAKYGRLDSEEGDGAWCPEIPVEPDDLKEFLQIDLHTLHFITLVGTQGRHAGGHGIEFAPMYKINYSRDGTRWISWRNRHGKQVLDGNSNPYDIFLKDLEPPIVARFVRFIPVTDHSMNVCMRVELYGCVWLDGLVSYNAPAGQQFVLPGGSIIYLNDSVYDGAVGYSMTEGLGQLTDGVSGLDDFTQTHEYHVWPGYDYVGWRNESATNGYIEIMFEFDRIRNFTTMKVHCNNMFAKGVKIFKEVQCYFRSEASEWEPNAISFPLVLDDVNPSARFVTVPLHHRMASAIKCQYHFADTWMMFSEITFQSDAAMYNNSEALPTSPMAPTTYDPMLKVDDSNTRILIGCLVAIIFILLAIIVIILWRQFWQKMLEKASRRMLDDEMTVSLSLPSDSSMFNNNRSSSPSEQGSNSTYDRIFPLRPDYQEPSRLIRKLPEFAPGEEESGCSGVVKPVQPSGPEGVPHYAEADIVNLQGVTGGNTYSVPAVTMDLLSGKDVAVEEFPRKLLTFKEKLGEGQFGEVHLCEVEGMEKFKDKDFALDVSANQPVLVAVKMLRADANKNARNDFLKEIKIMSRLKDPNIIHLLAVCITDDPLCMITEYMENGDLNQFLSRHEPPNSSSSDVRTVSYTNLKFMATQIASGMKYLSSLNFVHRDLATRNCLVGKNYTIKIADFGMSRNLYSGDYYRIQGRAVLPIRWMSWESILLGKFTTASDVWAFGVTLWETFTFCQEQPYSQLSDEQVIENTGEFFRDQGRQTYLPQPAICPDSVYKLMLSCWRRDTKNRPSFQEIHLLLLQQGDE
# NEK5 (human), sequence (Q6P3R8 whole entry, looked up): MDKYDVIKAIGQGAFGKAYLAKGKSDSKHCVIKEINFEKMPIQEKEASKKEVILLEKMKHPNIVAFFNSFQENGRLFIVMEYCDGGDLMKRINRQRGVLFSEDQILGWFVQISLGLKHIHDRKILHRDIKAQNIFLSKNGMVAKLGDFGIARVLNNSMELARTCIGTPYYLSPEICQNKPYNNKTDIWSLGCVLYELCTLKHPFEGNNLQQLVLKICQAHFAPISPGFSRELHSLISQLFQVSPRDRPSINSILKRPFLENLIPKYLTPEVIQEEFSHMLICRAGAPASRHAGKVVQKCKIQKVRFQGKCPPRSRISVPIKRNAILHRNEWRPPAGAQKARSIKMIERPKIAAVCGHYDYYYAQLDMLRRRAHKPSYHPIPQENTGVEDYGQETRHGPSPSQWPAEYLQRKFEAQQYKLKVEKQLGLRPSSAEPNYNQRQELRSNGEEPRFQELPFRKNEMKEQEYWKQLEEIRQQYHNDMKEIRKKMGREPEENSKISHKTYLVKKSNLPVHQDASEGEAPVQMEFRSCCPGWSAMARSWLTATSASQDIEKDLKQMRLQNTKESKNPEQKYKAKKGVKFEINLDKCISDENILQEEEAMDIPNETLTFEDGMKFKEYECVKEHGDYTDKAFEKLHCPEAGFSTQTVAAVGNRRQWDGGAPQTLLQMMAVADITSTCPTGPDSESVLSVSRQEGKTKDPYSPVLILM
# FGFR3 (human), sequence (P22607 whole entry, looked up): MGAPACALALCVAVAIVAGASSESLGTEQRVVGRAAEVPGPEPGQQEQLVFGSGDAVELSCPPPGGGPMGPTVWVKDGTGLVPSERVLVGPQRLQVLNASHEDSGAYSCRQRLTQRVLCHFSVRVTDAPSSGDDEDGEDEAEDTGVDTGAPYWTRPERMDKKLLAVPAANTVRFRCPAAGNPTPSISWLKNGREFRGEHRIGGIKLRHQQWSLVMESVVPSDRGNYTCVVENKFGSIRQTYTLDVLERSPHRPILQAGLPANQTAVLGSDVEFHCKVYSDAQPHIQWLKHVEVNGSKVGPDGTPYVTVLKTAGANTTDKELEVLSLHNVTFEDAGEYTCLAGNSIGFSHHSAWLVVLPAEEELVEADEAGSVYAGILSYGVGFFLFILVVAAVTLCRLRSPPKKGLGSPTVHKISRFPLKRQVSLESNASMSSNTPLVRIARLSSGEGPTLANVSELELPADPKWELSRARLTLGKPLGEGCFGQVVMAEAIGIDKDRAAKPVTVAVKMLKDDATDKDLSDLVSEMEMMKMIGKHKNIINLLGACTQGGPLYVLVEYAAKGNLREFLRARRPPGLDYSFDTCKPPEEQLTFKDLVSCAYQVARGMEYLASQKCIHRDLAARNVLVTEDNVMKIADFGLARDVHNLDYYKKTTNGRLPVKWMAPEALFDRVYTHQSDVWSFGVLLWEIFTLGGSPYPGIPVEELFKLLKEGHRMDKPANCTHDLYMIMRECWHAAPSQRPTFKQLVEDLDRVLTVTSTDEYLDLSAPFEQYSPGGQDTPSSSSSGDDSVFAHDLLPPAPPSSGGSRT
# ERBB4 (human), sequence (Q15303 whole entry, looked up): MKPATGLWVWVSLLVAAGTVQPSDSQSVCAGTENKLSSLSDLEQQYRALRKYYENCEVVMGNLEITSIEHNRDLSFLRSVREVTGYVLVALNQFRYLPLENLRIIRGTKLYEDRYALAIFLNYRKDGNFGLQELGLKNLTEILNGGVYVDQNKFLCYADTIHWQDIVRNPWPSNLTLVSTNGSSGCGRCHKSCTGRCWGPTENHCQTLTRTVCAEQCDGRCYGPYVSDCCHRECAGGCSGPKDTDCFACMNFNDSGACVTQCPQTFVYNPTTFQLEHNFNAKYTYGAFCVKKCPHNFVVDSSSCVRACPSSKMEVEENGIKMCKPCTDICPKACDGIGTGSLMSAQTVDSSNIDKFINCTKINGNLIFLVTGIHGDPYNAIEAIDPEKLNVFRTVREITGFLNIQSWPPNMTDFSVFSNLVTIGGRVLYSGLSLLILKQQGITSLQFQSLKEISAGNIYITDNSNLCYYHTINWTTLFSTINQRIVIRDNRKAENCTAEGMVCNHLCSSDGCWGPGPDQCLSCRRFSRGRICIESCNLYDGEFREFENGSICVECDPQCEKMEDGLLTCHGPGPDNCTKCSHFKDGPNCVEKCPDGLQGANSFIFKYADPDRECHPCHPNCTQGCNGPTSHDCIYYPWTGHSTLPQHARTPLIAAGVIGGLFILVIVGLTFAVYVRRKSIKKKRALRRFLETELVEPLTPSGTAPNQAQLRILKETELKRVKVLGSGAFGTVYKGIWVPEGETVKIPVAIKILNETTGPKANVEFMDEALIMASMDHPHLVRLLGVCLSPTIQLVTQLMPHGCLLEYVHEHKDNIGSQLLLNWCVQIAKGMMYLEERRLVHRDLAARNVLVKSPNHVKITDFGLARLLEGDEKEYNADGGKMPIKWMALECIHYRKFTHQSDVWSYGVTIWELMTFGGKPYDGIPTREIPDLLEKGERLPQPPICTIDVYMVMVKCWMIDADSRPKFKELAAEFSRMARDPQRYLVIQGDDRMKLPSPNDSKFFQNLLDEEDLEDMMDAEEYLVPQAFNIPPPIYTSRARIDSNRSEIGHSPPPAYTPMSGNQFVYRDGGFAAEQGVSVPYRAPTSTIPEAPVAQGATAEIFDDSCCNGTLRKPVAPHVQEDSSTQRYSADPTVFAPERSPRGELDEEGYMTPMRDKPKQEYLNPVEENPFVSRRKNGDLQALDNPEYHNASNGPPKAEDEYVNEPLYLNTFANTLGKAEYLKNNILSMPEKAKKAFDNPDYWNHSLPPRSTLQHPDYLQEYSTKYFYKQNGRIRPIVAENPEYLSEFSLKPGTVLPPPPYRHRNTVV
# FGFR2 (human), sequence (P21802 whole entry, looked up): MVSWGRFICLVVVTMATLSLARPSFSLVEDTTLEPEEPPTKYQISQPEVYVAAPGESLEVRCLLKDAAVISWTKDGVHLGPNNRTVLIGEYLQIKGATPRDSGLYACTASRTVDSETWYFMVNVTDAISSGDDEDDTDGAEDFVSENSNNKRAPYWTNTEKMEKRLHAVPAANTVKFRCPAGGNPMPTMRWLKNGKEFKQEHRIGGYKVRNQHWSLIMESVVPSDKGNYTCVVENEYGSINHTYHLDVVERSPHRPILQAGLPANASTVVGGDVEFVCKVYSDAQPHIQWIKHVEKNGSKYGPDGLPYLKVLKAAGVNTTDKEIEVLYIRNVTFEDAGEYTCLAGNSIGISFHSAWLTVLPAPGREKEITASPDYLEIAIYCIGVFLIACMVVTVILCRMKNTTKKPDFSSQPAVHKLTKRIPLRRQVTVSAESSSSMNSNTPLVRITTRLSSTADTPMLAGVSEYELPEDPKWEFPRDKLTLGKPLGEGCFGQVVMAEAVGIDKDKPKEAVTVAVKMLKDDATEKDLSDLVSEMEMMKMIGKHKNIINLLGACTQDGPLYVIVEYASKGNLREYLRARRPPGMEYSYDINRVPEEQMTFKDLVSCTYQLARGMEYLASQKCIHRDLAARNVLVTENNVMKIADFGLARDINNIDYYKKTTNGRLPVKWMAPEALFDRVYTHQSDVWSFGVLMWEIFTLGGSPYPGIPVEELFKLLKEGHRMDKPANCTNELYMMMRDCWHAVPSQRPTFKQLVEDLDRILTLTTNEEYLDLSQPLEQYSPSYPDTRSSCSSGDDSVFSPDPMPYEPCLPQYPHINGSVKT
# PDPK1 (human), sequence (O15530 whole entry, looked up): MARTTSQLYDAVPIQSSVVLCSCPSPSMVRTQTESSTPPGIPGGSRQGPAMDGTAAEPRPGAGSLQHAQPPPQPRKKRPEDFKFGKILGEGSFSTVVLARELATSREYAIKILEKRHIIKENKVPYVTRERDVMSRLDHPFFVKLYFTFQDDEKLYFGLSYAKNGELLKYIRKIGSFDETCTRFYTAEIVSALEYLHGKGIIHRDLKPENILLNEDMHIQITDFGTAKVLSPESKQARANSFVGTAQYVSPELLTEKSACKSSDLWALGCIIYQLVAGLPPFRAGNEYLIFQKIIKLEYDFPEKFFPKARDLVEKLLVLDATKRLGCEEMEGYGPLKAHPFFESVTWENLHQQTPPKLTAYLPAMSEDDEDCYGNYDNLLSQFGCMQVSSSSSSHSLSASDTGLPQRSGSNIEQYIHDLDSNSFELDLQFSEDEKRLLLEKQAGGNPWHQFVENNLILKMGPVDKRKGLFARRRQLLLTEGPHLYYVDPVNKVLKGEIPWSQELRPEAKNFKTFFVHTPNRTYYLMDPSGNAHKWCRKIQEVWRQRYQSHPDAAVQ
smiles,measurement,setting,value
O=C1Nc2cc(Br)ccc2/C1=C1/Nc2ccccc2/C1=N\O,"kinase still bound, per cent of control",MATK (human),30%
same,"kinase still bound, per cent of control",TNIK (human),4.6%
same,"kinase still bound, per cent of control",[1],3.8%
same,"kinase still bound, per cent of control",MAP4K1 (human),18%
same,"kinase still bound, per cent of control",RIOK2 (human),18%
same,"kinase still bound, per cent of control",PIM1 (human),62%
same,"kinase still bound, per cent of control",NEK2 (human),82%
same,"kinase still bound, per cent of control",SGK110 (human),100%
same,"kinase still bound, per cent of control",CLK3 (human),81%
same,"kinase still bound, per cent of control",RPS6KA4 KD2 (human),44%
same,"kinase still bound, per cent of control",NEK5 (human),80%
same,"kinase still bound, per cent of control",DDR2 (human),23%
same,"kinase still bound, per cent of control",CLK1 (human),34%
same,"kinase still bound, per cent of control",[2],0%
same,"kinase still bound, per cent of control",ALK (human),44%
same,"kinase still bound, per cent of control",PAK6 (human),24%
same,"kinase still bound, per cent of control",ACVRL1 (human),100%
same,"kinase still bound, per cent of control",MAPK11 (human),100%
same,"kinase still bound, per cent of control",FGFR3 (human),12%
same,"kinase still bound, per cent of control",ANKK1 (human),4.8%
same,"kinase still bound, per cent of control",MAPK15 (human),29%
same,"kinase still bound, per cent of control",CDK11B (human),100%
same,"kinase still bound, per cent of control",DAPK3 (human),2.7%
same,"kinase still bound, per cent of control",EIF2AK2 (human),33%
same,"kinase still bound, per cent of control",ZAP70 (human),90%
same,"kinase still bound, per cent of control",EPHA4 (human),55%
same,"kinase still bound, per cent of control",CDC42BPG (human),80%
same,"kinase still bound, per cent of control",MUSK (human),83%
same,"kinase still bound, per cent of control",TGFBR2 (human),58%
same,"kinase still bound, per cent of control",CHEK1 (human),32%
same,"kinase still bound, per cent of control",[3],5.2%
same,"kinase still bound, per cent of control",PDPK1 (human),20%
same,"kinase still bound, per cent of control",FYN (human),1.6%
same,"kinase still bound, per cent of control",ERBB4 (human),46%
same,"kinase still bound, per cent of control",HIPK1 (human),7.6%
same,"kinase still bound, per cent of control",SIK3 (human),24%
same,"kinase still bound, per cent of control",STK39 (human),37%
same,"kinase still bound, per cent of control",FGFR2 (human),15%
same,"kinase still bound, per cent of control",PKN1 (human),79%
same,"kinase still bound, per cent of control",AKT2 (human),100%
same,"kinase still bound, per cent of control",CAMK4 (human),100%
same,"kinase still bound, per cent of control",RPS6KA4 KD1 (human),3.2%

# Reference: the kinase profiling compilation of Christmann-Franck et al. (2016)
